Patent US8921426B2, “Cationic bis-urea compounds as effective antimicrobial agents” (International Business Machines Corporation, priority 2012, dated 2014)
≈ marks a conversion by molar mass, not a printed value. Entries after “also recorded” stand apart in the source; their conditions may differ. Like-named read-outs stand apart in the source and are kept apart here.

Key:
[1] = Critical micelle concentration (CMC) by intensity of scattered light; format: physicochemical; conditions: cationic bis-urea compounds; stock diluted using DI water
Protocol: The intensity of scattered light (in kilo counts per second) was recorded as a function of cationic compounds concentration ranging from 0.0 to 250.0 mg/L. A stock polymer solution was prepared with a concentration of 1000.0 mg/L, and diluted using DI water to various concentrations. The intensity of scattered light was plotted against polymer concentration. The CMC value was taken from the intersection of the tangent to the curve at the inflection with the horizontal tangent through the points at low concentrations.

[2] = tested on: Candida albicans (C. albicans) (ATCC No. 10231); test: MIC, broth microdilution, C. albicans; format: cell-based; conditions: for MIC: Candida albicans, read-out: MIC C. albicans
Protocol: (§1) The minimum inhibitory concentration (MIC) of each of the cationic compounds was measured using a broth microdilution method. The cationic compound were dissolved in DI water at a concentration of 2500 mg/L. The samples were further diluted to 31.25, 62.5, 125, 250.0, 500.0 and 1000.0 mg/L using TSB or YMB. The B. subtilis cells were grown in TSB overnight in an incubator at 37° C. The C. albicans cells were grown in YMB at room temperature. The optical density of the bacterial solution was adjusted to OD600 nm=0.07 to 0.08 by the addition of TSB or YMB. This bacterial solution was further diluted 1000 times. Cationic compound solution (100 microliters) was transferred to each well of 96 well plates (NUNC), followed by the addition of 100 microliters of the bacterial solution. TSB or YMB was used as control. B. subtilis cells were incubated at 37° C. overnight in TSB. C. albicans cells were cultured in YMB at room temperature. C. neoformans were inoculated in MHB broth and grew overnight at 37° C. with shaking at 250 rpm. The optical density readings of bacterial solutions were monitored by measuring OD600nm in predetermined times (0 hours and 18 hours for B. subtilis while 0 hours and 24 hours for C. albicans). The assay was performed in four replicates for each sample and the experiments were repeated at least three times.

rat red blood cells = test: Hemolysis of rat red blood cells; format: cell-based; conditions: one hour at 37° C.
Protocol: Fresh rat blood cells were washed with PBS three times. 100 microliters of red blood cell suspension in PBS (4% in volume) was introduced to each well of a 96 well-plate and 100 microliters of cationic compound solution was then added to the well. PBS and TRITON X-100 (0.2%) were used as control. The plates were incubated for one hour at 37° C. The 96 well plates were centrifuged at 4000 rpm for 5 minutes. Aliquots (100 microliters) of the supernatant were transferred to a new 96 well plate. Hemoglobin release was measured at 576 nm using a microplate reader (TECAN). The red blood cells in PBS were used as a negative control. Absorbance of wells with red cells lysed with 0.2% TRITON X-100 was taken as 100% hemolysis. Percentage of hemolysis was calculated using the following formula (OD576nm=optical density at 576 nm): Hemolysis (%)=[(OD576nm of the sample−OD576nm of PBS)/(OD576nm of 0.2% TRITON X-100−OD576nm of PBS)×100. The data were expressed as mean and standard deviation of four replicates and the tests were repeated three times.

[3] = tested on: Cryptococcus neoformans (C. neoformans); test: MIC, broth microdilution, C. neoformans; format: cell-based; conditions: for MIC: Cryptococcus neoformans, read-out: MIC C. neoformans
Protocol: as §1

[4] = Zeta potential (Zetasizer); format: physicochemical; conditions: cationic bis-urea compounds, 1000 mg/L; method names PBS pH 7.4 and DI water, table does not say which
Protocol: The zeta potential of the cationic compounds in phosphate-buffered saline (PBS, pH 7.4) and deionized (DI) water was measured by Zetasizer 3000 HAS (Malvern Instrument Ltd., Malvern, UK) equipped with a He—Ne laser beam at […] (scattering angle: 90°). The concentration of cationic compounds was 1000 mg/L. Each measurement was repeated 5 times. An average value was obtained from the five measurements.

B. subtilis = test: Killing efficiency, spread plate method, B. subtilis; format: cell-based, Bacillus subtilis; conditions: 18 hour treatment
Protocol: (§2) Antimicrobial activities of cationic compounds were also tested through a spread plate method. B. subtilis and C. albicans were treated at half MIC, MIC and 2×MIC concentrations of cationic compounds. At predetermined time (18 hours for B. subtilis and 24 hours for C. albicans and C. neoformans), microbial suspensions were withdrawn, diluted sequentially, and then plated on 1.5% lysogeny broth (LB) agar plates. The plates were incubated for 24 hours at 37° C. (48 hours at room temperature for C. albicans). Microbial colonies were formed and counted. The results are expressed as % kill=(cell count of control−survivor count of samples)/cell count of control×100. The experiments were performed in triplicate and were repeated three times.

C. albicans = test: Killing efficiency, spread plate method, C. albicans; format: cell-based, Candida albicans; conditions: for killing of C. albicans cells: 24 hour treatment
Protocol: as §2

[5] = tested on: primary human dermal fibroblasts; test: MTT cytotoxicity assay; format: cell-based; conditions: 24 hours at 37° C.
Protocol: The cytotoxicity tests of the cationic bis-urea compounds were performed in primary human fibroblasts using MTT assay. The cells were cultured in DMEM supplemented with 10% FBS, 5% penicillin, 2 mM L-glutamine (Sigma) and incubated at 37° C., 5% CO2. The cells were seeded onto 96-well plates at a density of 10,000 cells per well and incubated for one day. Cationic compounds were diluted with the growth medium to give final concentrations of 31.25, 62.5, 125, 250.0, 500.0, 1000.0 and 2500.0 mg/L. The media were replaced with 100 microliters of the pre-prepared samples. The plates were then returned to the incubator and maintained in 5% CO2 at 37° C. for 24 hours. Fresh growth media (100 microliters) containing 10% MTT solution (5 mg/mL) were used to replace the mixture in each well after 24 hours. The plates were then returned to the incubator and maintained in 5% CO2 at 37° C. for a further 4 hours. The growth medium and excess MTT in each well were then removed. DMSO (150 microliters) was then added to each well to dissolve the internalized purple formazan crystals. An aliquot of 100 microliters was taken from each well and transferred to a fresh 96-well plate. Each sample was tested in eight replicates per plate. The plates were then assayed at 550 nm and 690 nm. The absorbance readings of the formazan crystals were taken to be the absorbance at 550 nm minus the absorbance at 690 nm. The results were expressed as a percentage of the absorbance of the blank control.

[6] = tested on: Bacillus subtilis (B. subtilis) (ATCC No. 23857); test: MIC, broth microdilution, B. subtilis; format: cell-based; conditions: ATCC23857, TSB, 37° C., 18 hours
Protocol: as §1

C. neoformans cells = test: TEM of C. neoformans cells before and after treatment; format: cell-based, Cryptococcus neoformans; conditions: 8 hours, FIG. 7B
Protocol: The morphology of the C. neoformans before and after treatment with cationic compound CBU2 was observed under a JEM-1230 TEM (JEOL, Japan) using an acceleration voltage of 80 keV. The C. neoformans (1.5 mL) was incubated with 0.5 mL of CBU2 solution for 8 hours. The solution was then centrifuged at 4000 rpm for 10 minutes, and the supernatant removed. The […] was washed with PBS twice and then fixed in formalin solution containing 2.5% glutaraldehyde overnight. The sample was then washed by PBS three times (15 minutes each) and then post fixed with 1% OsO4 in phosphate buffer (pH 7.0) for one hour. The fixed samples were washed in phosphate buffer three times (15 minutes each), followed by dehydration in a graded ethanol series. The samples were incubated with the mixtures of acetone and Spun resin (1:1 in volume) for one hour at room temperature, and then transferred to 1:3 mixture of acetone and Spun resin for 3 hours, and to Spun resin overnight. Ultrathin sections (70-90 nm) were cut using a Reichert-Jung Ultracut E ultramicrotome, and post-stained with uranyl acetate and lead citrate for 15 minutes each prior to TEM observations. Spun resin can be prepared from a kit by combining 3,4 epoxy cyclohexyl methyl 3,4 epoxy cyclohexyl carboxylate (ERL-4221 resin from Polysciences) (10.0 g), nonenylsuccinic anhydride (26.0 g), and dimethylaminoethanol (0.4 g).

[7] = ATCC10231, YMB, room temperature, 24 hours
[8] = 24 hours, 1.0 and 2.0 times the MIC (FIG. 4A)
[9] = up to a concentration of 1000 mg/L

## NCc1ccc(CNC(=O)Nc2ccc(CNC(=O)c3ccc(C(=O)NCc4ccc(NC(=O)NCc5ccc(CN)cc5)cc4)cc3)cc2)cc1 [CBU7]
[1]
  CMC: 12.0 mg/L
[2]
  activity against C. albicans (in words): highly active; also recorded: more active
[2]; ATCC10231, 24 h
  MIC: 31.2 µg/mL (≈ 44.6 µM)
Rat red blood cells
  HC50 (concentration that induces 50% hemolysis of rat red blood cells): >>1000 mg/L
[3]
  activity against C. neoformans (in words): highly active
  MIC: 31.2 µg/mL (≈ 44.6 µM)
[4]
  Zeta Potential: 45.1 mV

## C[N+](C)(C)CCCNC(=O)Nc1ccc(CNC(=O)c2ccc(C(=O)NCc3ccc(NC(=O)NCCC[N+](C)(C)C)cc3)cc2)cc1.[I-].[I-] [CBU1]
[1]
  CMC: 170.0 mg/L
[2]; [7]
  MIC: 500 µg/mL
B. subtilis; about 500 mg/L
  killing of B. subtilis cells: 100%
C. albicans; about 500 mg/L
  killing of C. albicans cells: 99%
Rat red blood cells
  HC50 (concentration that induces 50% hemolysis of rat red blood cells): >>2500 mg/L
[5]; up to a concentration of 250 mg/L
  cell viability of primary human fibroblasts: About 60%
[6]
  MIC: 500 µg/mL
[4]
  Zeta Potential: 47.0 mV

## C[N+](C)(C)CCCNC(=O)Nc1ccc(NC(=O)c2ccc(C(=O)Nc3ccc(NC(=O)NCCC[N+](C)(C)C)cc3)cc2)cc1.[I-].[I-] [CBU3]
[1]
  CMC: 110.0 mg/L
[2]; [7]
  MIC: 250 µg/mL
C. albicans; [8]
  killing efficiency against C. albicans: 100%
C. albicans; about 125 mg/L
  killing of C. albicans cells: 99.9%
Rat red blood cells
  HC50 (concentration that induces 50% hemolysis of rat red blood cells): >>2500 mg/L
[5]; [9]
  cell viability of primary human fibroblasts: More than 80%
[6]
  MIC: 125 µg/mL
[4]
  Zeta Potential: 32.8 mV

## NCCCCCCNC(=O)Nc1ccc(CNC(=O)c2ccc(C(=O)NCc3ccc(NC(=O)NCCCCCCN)cc3)cc2)cc1 [CBU6]
[1]
  CMC: 15.0 mg/L
[2]
  activity against C. albicans (in words): highly active; also recorded: more active
[2]; ATCC10231, 24 h
  MIC: 31.2 µg/mL (≈ 47.4 µM)
Rat red blood cells
  HC50 (concentration that induces 50% hemolysis of rat red blood cells): >>1000 mg/L
[5]; [9]
  cell viability of primary human fibroblasts: About 80%
[3]
  activity against C. neoformans (in words): highly active
  MIC: 62.5 µg/mL (≈ 94.9 µM)
[4]
  Zeta Potential: 35.3 mV

## NCCNC(=O)Nc1ccc(CNC(=O)c2ccc(C(=O)NCc3ccc(NC(=O)NCCN)cc3)cc2)cc1 [CBU5]
[1]
  CMC: 100.00 mg/L
[2]
  activity against C. albicans (in words): highly active; also recorded: more active
[2]; ATCC10231, 24 h
  MIC: 62.5 µg/mL (≈ 114 µM)
Rat red blood cells
  HC50 (concentration that induces 50% hemolysis of rat red blood cells): >>1000 mg/L
[5]; [9]
  cell viability of primary human fibroblasts: About 80%
[3]
  activity against C. neoformans (in words): highly active
  MIC: 125 µg/mL (≈ 229 µM)
[4]
  Zeta Potential: 32.2 mV

## NCCCCNC(=O)Nc1ccc(CNC(=O)c2ccc(C(=O)NCc3ccc(NC(=O)NCCCCN)cc3)cc2)cc1 [CBU2]
[1]
  CMC: 20.0 mg/L
[2]
  activity against C. albicans (in words): highly active; also recorded: more active
[2]; [7]
  MIC: 31.2 µg/mL (≈ 51.8 µM)
B. subtilis; about 125 mg/L
  killing of B. subtilis cells: 100%
C. albicans; 31.2 mg/L, by 1 hour of incubation (FIG. 5)
  killing efficiency against C. albicans: 100%
C. albicans; [8]
  killing efficiency against C. albicans: 100%
C. albicans; about 31.2 mg/L
  killing of C. albicans cells: 100%
Rat red blood cells
  HC50 (concentration that induces 50% hemolysis of rat red blood cells): >>1000 mg/L
[3]
  activity against C. neoformans (in words): highly active
[3]; MHB broth, 37° C.
  MIC: 62.5 µg/mL (≈ 104 µM)
[6]
  MIC: 125 µg/mL (≈ 207 µM)
[4]
  Zeta Potential: 36.7 mV
C. neoformans cells
  cell membrane morphology after treatment (TEM): ruptured and show loss of intracellular material
